This is an account of results in US5424073A (Georgetown University, priority 1993, dated 1995).

Broadly, the IC50 is the concentration needed to halve the response being measured. Read a low IC50 as higher potency.

≈ marks a conversion by molar mass, not a printed value.

Series [1] deals with lymphoma, ovarian and breast cancers. The following applies: cited from earlier work.
Series [2] has as its system HL-60/VCR cells. Description: Intracellular taxol accumulation in HL-60/VCR cells. It counts as cell-based, human. The note with it: 4 hours. Here is the method:
The cells were suspended in cold PBS and counted, and centrifuged again. The cell pellets were suspended in 0.5 ml of 2% SDS solution and then sonicated for 5 minutes in a cup-horn sonicator (Heat Systems, Farmingdate, N.Y.). Resulting cell homogenate was extracted with 4 ml of methanol, vortexed for 1 minute and centrifuged for 20 minutes at 3000 rpm. The samples were read by using HPLC. The concentration of drug in […] was calculated using a standard calibration curve for drug spiked cells and were then treated similarly.

The conditions of series [3]: cited from earlier work.
Series [4] deals with Male CD2 F1 mice. Description: Toxicity evaluation of free and liposomal taxol in normal mice. The class given is in vivo, mouse. The note with it: 25 mg/kg i.v., repeated day 5 and 9. The protocol:
Male CD2 F1 mice weighing 22-25 gm were used in this study. […] Taxol liposomes were prepared using cardiolipin, phosphatidyl choline, and cholesterol. […] The same doses were repeated on mice at day 5 and 9.

The nature of series [5]: Stability studies of liposomal and free taxol. It counts as physicochemical. The following applies: free taxol 0.6 mg/ml in saline.
The conditions of series [6]: cited from earlier work. The source holds these as a separate data set.
The subject of series [7] is HL-60 promyelocytic leukemia cells. Description: Growth inhibition (cytotoxicity) in HL-60 leukemia cells. The following applies: Homo sapiens; HL-60, 72 hours, 37° C., trypan blue; FIG. 3. It counts as cell-based. The protocol:
HL-60 promyelocytic leukemia cells were grown in tissue culture in RPM1-1640 medium supplemented with 10% fetal bovine serum. All cultures were maintained in plastic tissue culture flasks and kept in an incubator at 37° C. in humidified air containing 5% CO2.
For these experiments, 1×10^5 cells in exponential growth phase were plated into 25 cm^2 flasks. […] Cells were counted in a hemocytometer and viability was determined by trypan blue exclusion. The cell survival was compared to the control cells and IC50 (inhibitory concentration for 50% of the cells) values for each drug was determined.

Series [8] relates to metastatic breast cancer. The following applies: in vivo; cited from earlier work.
In series [9] the test system is tubulin. The following applies: cited from earlier work.
In series [10] the test system is HL-60/VCR cells. Description: Cytotoxicity in multidrug resistant HL-60/VCR cells. It counts as cell-based. The note with it: Homo sapiens, HL60/VCR, 72 hours, FIG. 5. The protocol:
The HL-60 VCR cells were grown in media at 37° C. with 5% CO2.
After 72 hours of incubation, cells in each flask were counted by hemocytometer and viability was determined by trypan blue exclusion. Percent survival of treated cells was determined relative to untreated control. Cytotoxic activity was expressed as IC50 which was defined as the concentration of drug resulting 50% survival of the cells compared to control.

Series [11] concerns human MX-1 mammary tumor xenograft. The following applies: in vivo; cited from earlier work.
Series [12] has as its system P388 leukemia. The following applies: in vivo; cited from earlier work.
Series [13] has as its system cell replication. The following applies: in vitro; cited from earlier work.
Series [14] relates to L1210 leukemia. The note with it: in vivo; cited from earlier work.
In series [15] the test system is advanced ovarian tumors. The note with it: women with advanced ovarian tumors; cited from earlier work.
In series [16] the test system is B16 melanoma. The following applies: i.p. implanted; cited from earlier work.
Series [17] has as its system HL-60 cells. The class given is cell-based, human. The note with it: 10 μg/ml, FIG. 4. Here is the method: Briefly, exponentially growing cells were incubated in 100 mm petri dishes with drug containing medium at 37° C. […] The cell pellets were suspended in 0.5 ml of 2% SDS solution and then sonicated for 5 minutes in a cup-horn sonicator. The cell homogenate was extracted with 2 ml of methanol.

As for `CC(=O)O[C@H]1C(=O)[C@@]2(C)[C@H]([C@H](OC(=O)c3ccccc3)[C@]3(O)C[C@H](OC(=O)[C@H](O)[C@@H](NC(=O)c4ccccc4)c4ccccc4)C(C)=C1C3(C)C)[C@]1(OC(C)=O)CO[C@@H]1C[C@@H]2O` (relative stereo) [Taxol, (2aR(2aα,4β,4aβ,6β,9α(αR*,βS*) ,11α, 12α,12aα,12bα))-β-(β-(benzoylamino)-α-hydroxybenzenepropanoic acid 6,12b-bis(acetyloxy)-12-(benzoyloxy)-2a,3,4,4a,5,6,9,10,11,12,12a,12b-dodecahydro-4,11-dihydroxy-4a, 8,13,13-tetramethyl-5-oxo-7,11-methano-14-cyclodeca(3,4)benz(1,2-6)oxet-9-yl ester], the “activity in clinical trials” value in series [1] is reported as “sufficient activity”. Further, the “decrease in cellular uptake versus liposomal taxol” value in series [2] is recorded as “threefold decrease in cellular uptake”. Besides, in [3] (diluted in saline solution), the “degradation time once diluted in saline” value is at most 24 h. Also, in [3] (diluted in saline solution), the precipitation from dilution entry is “the drug precipitates from dilution”. The solubility in water result in series [3] (water) was “limited solubility in water”. In [4], the “sclerosis of the vein” value is on record as “sclerosis of the vein”. Further, the “mortality / toxicity by day 12” value in series [4] (ten mice per group, FIG. 2) was “three mice in the free taxol group died because of toxicity”. Further, the “degradation time in saline” value in series [5] is at most 3 h. Further, the “toxicities despite pretreatment and prolonged infusion” value in [6] (antihistamine and corticosteroids, infusion six to twenty four hours) is given as “serious toxicities which are often fatal”. For the same compound, the cardiac toxicity result in series [6] (human, in vivo) was “treatment limiting”. Besides, the IC50 in series [7] was 0.0025 µg/mL (≈ 0.00293 µM); in [10], 2.43 µg/mL (≈ 2.85 µM). Moreover, the “treatment of metastatic breast cancer” value in series [8] is “considerable promise”. In series [9], the “effect on tubulin polymerization” value was “markedly enhances all aspects of tubulin polymerization”. The “antineoplastic activity against MX-1 xenograft” value in series [11] is recorded as “significant antineoplastic activity”. Moreover, the “antineoplastic activity against P388 leukemia” value in series [12] is listed as “significant antineoplastic activity”. Moreover, the “inhibition of cell replication” value in series [13] is “potent inhibitor of cell replication in vitro”. In series [14], the “antineoplastic activity against L1210 leukemia” value is “significant antineoplastic activity”. The “tumor shrinkage, share of women” value in series [15] is 30 to 40%. The “antineoplastic activity against B16 melanoma” value in series [16] was “significant antineoplastic activity”. The “cellular concentration of taxol at 2 and 4 hours” value in series [17] (2 and 4 hours, HL-60, relative to 1 hour) was “same taxol concentration”. The “cellular concentration of taxol at 1 hour” value in series [17] (1 hour, HL-60) was determined as 5.18 μg/10^7 cells.
